Earlier results, collected in patent US12226415B2, “Methods and compositions for the treatment of hair loss” (Aneira Pharma Inc., priority 2019, dated 2025).

Experiments:
human FP receptors = human FP receptors (Homo sapiens, UniProt P43088)
hair growth = conditions: for hair growth: McCarey et al. 2004
intraocular pressure = conditions: glaucomatous monkey eyes, Gagliuso et al. 2004
[1] = tested on: elevated intraocular pressure; conditions: some human glaucoma patients non-responsive to latanoprost, Gandolfi 2003
[2] = tested on: production of dihydrotestosterone (DHT); conditions: oral; including in the prostate gland and the scalp
[3] = propylene glycol, methanol, ethanol and 2-propanol

human FP receptors, sequence (P43088 whole entry): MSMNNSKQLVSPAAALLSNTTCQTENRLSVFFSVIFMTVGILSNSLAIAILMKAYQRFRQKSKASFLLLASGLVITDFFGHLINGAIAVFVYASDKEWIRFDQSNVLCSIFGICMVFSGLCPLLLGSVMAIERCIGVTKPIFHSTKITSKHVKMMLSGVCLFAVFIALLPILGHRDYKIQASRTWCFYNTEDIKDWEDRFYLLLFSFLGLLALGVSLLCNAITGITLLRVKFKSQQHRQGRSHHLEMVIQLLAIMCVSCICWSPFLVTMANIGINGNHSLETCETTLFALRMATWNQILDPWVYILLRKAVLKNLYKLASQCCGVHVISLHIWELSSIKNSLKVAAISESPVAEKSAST

For O=C(O)CCC/C=C\C[C@@H]1[C@@H](CC[C@@H](O)CCc2ccccc2)[C@H](O)C[C@@H]1O [Latanoprost free acid], the “potency relative to PGF2α” value (human FP receptors) is given as “twice the potency of PGF2α”.
For CCCCCCCC(=O)CC[C@@H]1[C@@H](C/C=C\CCCC(=O)OC(C)C)[C@@H](O)C[C@H]1O [Uenoprostone isopropyl ester], the hair growth (hair growth) is listed as “no hair growth” and the “incidence of iris pigmentation and eyelash changes” value (hair growth; two randomized clinical trials, 0.15%) is listed as “Low incidence”.
For CCNC(=O)CCC/C=C\C[C@@H]1[C@@H](/C=C/[C@@H](O)CCc2ccccc2)[C@H](O)C[C@@H]1O [bimatoprost], the “effect on elevated intraocular pressure in combination with latanoprost” value (intraocular pressure) is listed as “additive” and the “response in reducing elevated intraocular pressure” value [1] is listed as “responsive”.
In the case of CC(C)(C)NC(=O)[C@H]1CC[C@H]2[C@@H]3CC[C@H]4NC(=O)C=C[C@]4(C)[C@H]3CC[C@]12C [finasteride, (1S,3aS,3bS,5aR,9aR,9bS,11aS)—N-tert-butyl-9a,11a-dimethyl-7-oxo-1,2,3,3a,3b,4,5,5a,6,9b,10,11-dodecahydroindeno[5,4-f]quinoline-1-carboxamide], the “decrease of production of dihydrotestosterone (DHT)” value [2] is listed as “about 70%”.
In the case of CC(C)OC(=O)CCC/C=C\C[C@@H]1[C@@H](CC[C@@H](O)CCc2ccccc2)[C@H](O)C[C@@H]1O [latanoprost, isopropyl ester of 17-phenyl-13,14-dihydro prostaglandin F2a], the “solubility (concentration that can be obtained)” value [3] is given as at least 5%.
For CCCCCCCC(=O)CC[C@@H]1[C@@H](C/C=C\CCCC(=O)O)[C@@H](O)C[C@H]1O [uenoprostone free acid], the hair growth (hair growth) is listed as “no hair growth”.
